Laboratory results reported in patent US8173668B1 (Alcon Research, Ltd., priority 2007, dated 2012).

What was measured:
[1] = target: T1, B2-receptors in h-NPE cells (Homo sapiens, UniProt P30411); assay: [Ca2+]i mobilization (FLIPR) in h-NPE cells, agonist mode; assay type: cell-based; conditions: h-NPE cells, mean ± SEM
T1 construct: B2-receptor proteins in h-TM, h-CM and h-NPE cells; endogenous in cells; host or cells: human trabecular meshwork (h-TM), human ciliary muscle (h-CM) and human non-pigmented ciliary epithelial (h-NPE) cells
T1 sequence (P30411 1-391): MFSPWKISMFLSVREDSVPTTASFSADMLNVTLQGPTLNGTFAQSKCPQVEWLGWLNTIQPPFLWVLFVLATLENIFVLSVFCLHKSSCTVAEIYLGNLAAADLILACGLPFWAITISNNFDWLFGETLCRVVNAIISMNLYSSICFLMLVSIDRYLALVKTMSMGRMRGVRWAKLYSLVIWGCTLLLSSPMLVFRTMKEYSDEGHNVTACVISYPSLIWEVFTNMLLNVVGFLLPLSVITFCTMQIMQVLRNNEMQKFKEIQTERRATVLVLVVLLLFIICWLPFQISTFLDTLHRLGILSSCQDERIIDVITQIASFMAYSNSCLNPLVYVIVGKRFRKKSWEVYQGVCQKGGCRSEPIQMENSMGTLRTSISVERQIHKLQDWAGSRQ
Method: On the day of the experiment, one vial of FLIPR Calcium Assay Kit dye is re-suspended in 50 mL of a FLIPR buffer consisting of Hank's Balanced Salt Solution (HBSS), 20 mM HEPES, and 2.5 mM probenecid, pH 7.4. Cells are loaded with the calcium-sensitive dye by addition of an equal volume (50 μL) to each well of the 96-well plate and incubated with dye for 1 h at 23° C. After this time, the test compound plate and cell plate are placed in the FLIPR instrument. At the beginning of an experimental run, a signal test is performed to check the basal fluorescence signal from the dye-loaded cells and the uniformity of the signal across the plate. The basal fluorescence is adjusted between 8000-12000 counts by modifying the exposure time, the camera F-stop, or the laser power. Instrument settings for a typical assay are the following: laser power 0.3-0.6 W, camera F-stop F/2, and exposure time 0.4 sec.
Fluorescence data are collected in real-time at 1.0 sec intervals for the first 60 secs and at 6.0 sec intervals for an additional 120 secs. […] The data are then analyzed using an automated, iterative, sigmoidal curve-fitting computer program to obtain the potency and intrinsic activities of the test agents as previously described (Sharif et al. J. Pharmacol. Exp. Ther. 286: 1094-1102, 1998; Sharif et al. Invest. Ophthalmol. Vis. Sci. 39:2562-2571, 1998; Kelly et al. J. Pharmacol. Exp. Ther. 304: 238-245, 2003). The sources of materials and reagents for such assays can be found in the references cited above.

[2] = test system: Human trabecular meshwork (TM) cells; assay: PGE2 production (RIA) in human trabecular meshwork cells; assay type: cell-based; conditions: 1 h at 37° C., BK 100 nM or 1 μM, fluprostenol 1 μM, non-peptide agonists 1 μM or 10 μM, FIG. 6
Method: The ability of BK agonists to stimulate prostaglandin E2 (PGE2) production was examined as follows. Human trabecular meshwork (TM) cells were seeded in culture plates and allowed to reach confluence. […] Fluprostenol was used as a positive control. After this time the assay was terminated by placing the assay plates on ice and by the addition of 100 μL of a cell-lysis reagent supplied with the PGE2 radioimmunoassay (RIA) kit (Amersham Pharmacia Biotech, Arlington Heights, Ill.). All reagents and standards supplied in the RIA kit were prepared and the RIA performed according to the manufacturer's instructions. Assay buffer, diluted prostaglandin E2 (PGE2) standard and supernatant from the cell-based experiment (diluted 1:100 v/v) were then pipetted into appropriate tubes as specified in the kit instructions. […]
After this incubation, all tubes were placed in an ice-bath and 1 ml cold precipitating reagent supplied in the kit was added to the tubes, the content mixed and incubated for 25 min at 4° C. […] The supernatants of all tubes were decanted as specified in the kit instructions and the RIA samples analyzed on a gamma-counter. The levels of PGE2 generated by the test agent were then quantified in comparison with the PGE2-standard curve. Dose-response data for the test agent were constructed and the potency and intrinsic activity determined as described above for other assays.

Emax ([1]; read-out: Intrinsic Activity (Emax, % max relative to BK)): 32%
EC50 ([1]; read-out: Potency (EC50), [Ca2+]i mobilization): 384 ± 39 nM
SMILES: CNC(=O)c1ccc(/C=C/C(=O)NCC(=O)N(C)c2ccc(Cl)c(COc3cccc4c(OCc5ccccn5)cc(C)nc34)c2Cl)cc1 [FR-190997]
production of endogenous prostaglandins (PGE2) [2]: stimulated production of endogenous prostaglandins
